Tests used:
Experiment in all cases: Caspase Catalytic Activity Assay
Conditions in all cases: pH 7.4
[1] = biological target: T1, Caspase-5 (Homo sapiens, UniProt P51878)
T1 sequence (P51878 whole entry): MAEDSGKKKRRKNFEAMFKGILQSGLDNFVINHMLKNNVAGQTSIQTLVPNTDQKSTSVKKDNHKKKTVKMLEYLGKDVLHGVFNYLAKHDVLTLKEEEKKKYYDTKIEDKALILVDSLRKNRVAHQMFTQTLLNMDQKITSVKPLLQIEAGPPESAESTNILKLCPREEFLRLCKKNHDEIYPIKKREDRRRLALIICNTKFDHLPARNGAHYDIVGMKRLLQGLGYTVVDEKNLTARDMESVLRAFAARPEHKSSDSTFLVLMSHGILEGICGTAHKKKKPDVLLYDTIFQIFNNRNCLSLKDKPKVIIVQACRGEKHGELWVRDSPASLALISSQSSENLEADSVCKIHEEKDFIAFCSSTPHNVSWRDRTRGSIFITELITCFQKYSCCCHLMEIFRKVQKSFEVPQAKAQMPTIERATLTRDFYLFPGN
Procedure: (§1) ECB (Enzo Caspase Buffer): 50 mM HEPES (pH 7.4), 100 mM NaCl, 0.5% Tween 20, 10 mM DTT, and 10% glycerol; SCB (Standard Caspase Buffer): 20 mM PIPES (pH 7.5), 100 mM NaCl, 1 mM EDTA, 10 mM DTT, and 10% sucrose; HCB (High-Citrate Buffer): 50 mM Tris-HCl (pH 7.5), 1 M sodium citrate, 10 mM DTT, and 10% sucrose. Activity was measured as the change in luminescent signal for at least 30 min.

[2] = biological target: T2, Caspase-3 (Homo sapiens, UniProt P42574)
T2 sequence (P42574 whole entry): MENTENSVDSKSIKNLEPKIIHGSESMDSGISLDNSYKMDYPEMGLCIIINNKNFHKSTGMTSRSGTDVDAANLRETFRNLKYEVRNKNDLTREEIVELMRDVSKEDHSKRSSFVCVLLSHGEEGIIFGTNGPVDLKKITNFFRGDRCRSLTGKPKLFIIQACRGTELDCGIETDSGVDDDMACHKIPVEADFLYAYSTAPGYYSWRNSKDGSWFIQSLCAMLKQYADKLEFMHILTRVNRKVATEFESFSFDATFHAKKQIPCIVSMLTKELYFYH
Procedure: as §1

[3] = biological target: T3, Caspase-9 (Homo sapiens, UniProt P55211)
T3 sequence (P55211 whole entry): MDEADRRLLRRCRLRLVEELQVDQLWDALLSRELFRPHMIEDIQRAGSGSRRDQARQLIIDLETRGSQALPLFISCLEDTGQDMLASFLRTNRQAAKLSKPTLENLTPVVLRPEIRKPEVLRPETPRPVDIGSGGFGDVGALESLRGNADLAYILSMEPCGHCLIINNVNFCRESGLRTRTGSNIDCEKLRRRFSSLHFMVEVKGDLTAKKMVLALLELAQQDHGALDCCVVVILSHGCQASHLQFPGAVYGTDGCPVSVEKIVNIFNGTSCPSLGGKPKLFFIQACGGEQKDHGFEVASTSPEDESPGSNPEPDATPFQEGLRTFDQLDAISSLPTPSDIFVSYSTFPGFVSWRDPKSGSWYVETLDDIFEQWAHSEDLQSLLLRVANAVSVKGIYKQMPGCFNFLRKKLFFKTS
Procedure: as §1

[4] = biological target: T4, Caspase-1 (Homo sapiens, UniProt P29466)
T4 sequence (P29466 whole entry): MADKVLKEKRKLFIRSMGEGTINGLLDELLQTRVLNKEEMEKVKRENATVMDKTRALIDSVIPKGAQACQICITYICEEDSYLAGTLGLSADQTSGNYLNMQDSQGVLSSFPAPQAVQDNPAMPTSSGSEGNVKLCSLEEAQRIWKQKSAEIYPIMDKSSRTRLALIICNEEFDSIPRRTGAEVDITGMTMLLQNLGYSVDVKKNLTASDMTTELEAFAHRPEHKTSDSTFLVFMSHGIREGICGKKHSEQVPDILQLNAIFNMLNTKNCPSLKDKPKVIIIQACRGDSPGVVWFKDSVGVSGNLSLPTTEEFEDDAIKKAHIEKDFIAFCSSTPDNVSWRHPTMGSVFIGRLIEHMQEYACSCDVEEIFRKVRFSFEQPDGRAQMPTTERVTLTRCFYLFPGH
Procedure: as §1

[5] = biological target: T5, Caspase-4 (Homo sapiens, UniProt P49662)
T5 sequence (P49662 whole entry): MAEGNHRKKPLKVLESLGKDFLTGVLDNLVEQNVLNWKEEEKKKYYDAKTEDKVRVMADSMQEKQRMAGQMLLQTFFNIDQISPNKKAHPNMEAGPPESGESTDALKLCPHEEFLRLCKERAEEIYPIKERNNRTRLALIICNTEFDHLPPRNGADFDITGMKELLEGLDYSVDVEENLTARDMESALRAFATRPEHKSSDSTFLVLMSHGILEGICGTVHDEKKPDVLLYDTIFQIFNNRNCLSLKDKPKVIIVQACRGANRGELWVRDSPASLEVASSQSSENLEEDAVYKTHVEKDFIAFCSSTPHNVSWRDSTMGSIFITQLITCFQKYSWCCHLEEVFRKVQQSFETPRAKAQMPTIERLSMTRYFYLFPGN
Procedure: as §1

Structure (SMILES)	IC50 [1] [µM]	IC50 [2] [µM]	IC50 [3] [µM]	IC50 [4] [µM]	IC50 [5] [µM]
O=C(O)Cc1ccc(-c2ccccc2)cc1 [Felbinac]	2.6	14	1.8	35	2
COc1ccc2cc([C@H](C)C(=O)O)ccc2c1 [(2S)-2-(6-methoxynaphthalen-2-yl)propanoic acid]	11	55	10	> 66	15
O=C(O)CCC(=O)c1ccc(-c2ccccc2)cc1 [3-(4-biphenylylcarbonyl)propionic acid]	0.87	1.2	0.76	4.4	0.57
O=C(c1ccccc1)c1ccc2n1CCC2C(=O)O (stereo not given) [Toradol]	1	2.5	0.85	18	0.86
CC(C(=O)O)c1ccc(N2Cc3ccccc3C2=O)cc1 (stereo not drawn) [(+)-2-(4-(1-oxoisoindolin-2-yl)phenyl)propanoic acid]	0.59	1.4	0.3	3.6	0.57
CC(C(=O)O)c1cccc(C(=O)c2ccccc2)c1 (stereo not given) [2-(3-benzoylphenyl)propanoic acid]	10	50	10	> 66	10
CC(C(=O)O)c1ccc(C(=O)c2ccccc2)s1 (stereo not given) [Tiaprofenic acid]	0.47	0.81	2.2	1.6	0.38
